“And” between values parts separate entries of the source, which are not always exact repeats. Equal entries are not always repeated. ± gives the expanded uncertainty stated by the source.
Experiment: molar heat capacity at constant volume
Details: Fluid (supercritical or subcritical phases), Vacuum adiabatic calorimetry

FC(F)C(F)(F)F [pentafluoroethane]
Details	molar heat capacity at constant volume
306 K, Mass density=1202.8 kg/m3	102.77 ± 2.1 J/K/mol
307 K, Mass density=1202.7 kg/m3	103.99 ± 2.1 J/K/mol
308 K, Mass density=1202.5 kg/m3	103.96 ± 2.1 J/K/mol
309 K, Mass density=1202.4 kg/m3	102.49 ± 2.1 J/K/mol
310 K, Mass density=1202.3 kg/m3	101.48 ± 2 J/K/mol
311 K, Mass density=1202.1 kg/m3	102.64 ± 2.1 J/K/mol
312 K, Mass density=1202 kg/m3	103.21 ± 2.1 J/K/mol
313 K, Mass density=1201.9 kg/m3	102.64 ± 2.1 J/K/mol
314 K, Mass density=1201.7 kg/m3	103.24 ± 2.1 J/K/mol
315 K, Mass density=1201.6 kg/m3	102.92 ± 2.1 J/K/mol
316 K, Mass density=1201.5 kg/m3	103.09 ± 2.1 J/K/mol
317 K, Mass density=1201.4 kg/m3	102.73 ± 2.1 J/K/mol
318 K, Mass density=1201.2 kg/m3	102.19 ± 2.1 J/K/mol
319 K, Mass density=1201.1 kg/m3	102.74 ± 2.1 J/K/mol
320 K, Mass density=1201 kg/m3	102.92 ± 2.1 J/K/mol
321 K, Mass density=1200.8 kg/m3	102.75 ± 2.1 J/K/mol and 102.7 ± 2.1 J/K/mol
322 K, Mass density=1079.2 kg/m3	106.18 ± 2.1 J/K/mol and 102.47 ± 2.1 J/K/mol
322 K, Mass density=1200.7 kg/m3	102.47 ± 2.1 J/K/mol and 101.89 ± 2.1 J/K/mol
323 K, Mass density=1079.1 kg/m3	105.94 ± 2.1 J/K/mol and 104.02 ± 2.1 J/K/mol
323 K, Mass density=1200.6 kg/m3	102.89 ± 2.1 J/K/mol and 102.1 ± 2.1 J/K/mol
324 K, Mass density=1079 kg/m3	105.71 ± 2.1 J/K/mol and 105.31 ± 2.1 J/K/mol
324 K, Mass density=1200.5 kg/m3	102.77 ± 2.1 J/K/mol and 102.45 ± 2.1 J/K/mol
325 K, Mass density=1078.9 kg/m3	104.71 ± 2.1 J/K/mol and 104.09 ± 2.1 J/K/mol
325 K, Mass density=1200.3 kg/m3	102.83 ± 2.1 J/K/mol and 102.31 ± 2.1 J/K/mol
326 K, Mass density=1078.8 kg/m3	103.25 ± 2.1 J/K/mol and 103.34 ± 2.1 J/K/mol
326 K, Mass density=1200.2 kg/m3	102.63 ± 2.1 J/K/mol and 102.1 ± 2.1 J/K/mol
327 K, Mass density=1078.7 kg/m3	104.31 ± 2.1 J/K/mol
327 K, Mass density=1200.1 kg/m3	102.65 ± 2.1 J/K/mol and 102.35 ± 2.1 J/K/mol
328 K, Mass density=1078.6 kg/m3	105.03 ± 2.1 J/K/mol and 104.85 ± 2.1 J/K/mol
328 K, Mass density=1199.9 kg/m3	102.89 ± 2.1 J/K/mol
328 K, Mass density=1200 kg/m3	103.64 ± 2.1 J/K/mol
329 K, Mass density=1078.5 kg/m3	104.79 ± 2.1 J/K/mol and 104.41 ± 2.1 J/K/mol
329 K, Mass density=1199.8 kg/m3	102.81 ± 2.1 J/K/mol and 102.69 ± 2.1 J/K/mol
330 K, Mass density=1078.4 kg/m3	105.01 ± 2.1 J/K/mol and 104.07 ± 2.1 J/K/mol
330 K, Mass density=1199.7 kg/m3	103.09 ± 2.1 J/K/mol
331 K, Mass density=1078.3 kg/m3	104.36 ± 2.1 J/K/mol and 104.2 ± 2.1 J/K/mol
331 K, Mass density=1199.6 kg/m3	102.64 ± 2.1 J/K/mol
332 K, Mass density=976.3 kg/m3	110.56 ± 2.2 J/K/mol and 112.17 ± 2.3 J/K/mol
332 K, Mass density=1078.2 kg/m3	104.98 ± 2.1 J/K/mol and 105.47 ± 2.1 J/K/mol
332 K, Mass density=1199.4 kg/m3	103.45 ± 2.1 J/K/mol
333 K, Mass density=976.2 kg/m3	107.88 ± 2.2 J/K/mol and 109.12 ± 2.2 J/K/mol
333 K, Mass density=1078.1 kg/m3	105.77 ± 2.1 J/K/mol and 104.87 ± 2.1 J/K/mol
333 K, Mass density=1199.3 kg/m3	103.83 ± 2.1 J/K/mol
334 K, Mass density=976.2 kg/m3	105.25 ± 2.1 J/K/mol and 107.12 ± 2.1 J/K/mol
334 K, Mass density=1078 kg/m3	104.98 ± 2.1 J/K/mol and 103.53 ± 2.1 J/K/mol
334 K, Mass density=1199.2 kg/m3	103.39 ± 2.1 J/K/mol
335 K, Mass density=976.1 kg/m3	106.11 ± 2.1 J/K/mol and 106.99 ± 2.1 J/K/mol
335 K, Mass density=1077.9 kg/m3	104.43 ± 2.1 J/K/mol and 103.57 ± 2.1 J/K/mol
335 K, Mass density=1199.1 kg/m3	102.85 ± 2.1 J/K/mol
336 K, Mass density=976 kg/m3	107.32 ± 2.2 J/K/mol and 107.23 ± 2.2 J/K/mol
336 K, Mass density=1077.8 kg/m3	104.74 ± 2.1 J/K/mol and 104.05 ± 2.1 J/K/mol
336 K, Mass density=1198.9 kg/m3	102.26 ± 2.1 J/K/mol
337 K, Mass density=975.9 kg/m3	107.6 ± 2.2 J/K/mol and 108.43 ± 2.2 J/K/mol
337 K, Mass density=1077.7 kg/m3	105.57 ± 2.1 J/K/mol and 105.69 ± 2.1 J/K/mol
337 K, Mass density=1198.8 kg/m3	103.71 ± 2.1 J/K/mol
338 K, Mass density=975.9 kg/m3	107.08 ± 2.2 J/K/mol and 107.59 ± 2.2 J/K/mol
338 K, Mass density=1077.6 kg/m3	104.15 ± 2.1 J/K/mol and 105.09 ± 2.1 J/K/mol
338 K, Mass density=1198.7 kg/m3	104.23 ± 2.1 J/K/mol
339 K, Mass density=883.4 kg/m3	114.19 ± 2.3 J/K/mol
339 K, Mass density=975.8 kg/m3	106.21 ± 2.1 J/K/mol and 106.6 ± 2.1 J/K/mol
339 K, Mass density=1077.5 kg/m3	103.97 ± 2.1 J/K/mol and 103.59 ± 2.1 J/K/mol
339 K, Mass density=1198.5 kg/m3	104 ± 2.1 J/K/mol
340 K, Mass density=883.3 kg/m3	112.9 ± 2.3 J/K/mol
340 K, Mass density=975.7 kg/m3	106.54 ± 2.1 J/K/mol and 107.42 ± 2.2 J/K/mol
340 K, Mass density=1077.4 kg/m3	104.49 ± 2.1 J/K/mol and 105.35 ± 2.1 J/K/mol
341 K, Mass density=883.3 kg/m3	112.1 ± 2.3 J/K/mol
341 K, Mass density=975.6 kg/m3	107.88 ± 2.2 J/K/mol and 107.61 ± 2.2 J/K/mol
341 K, Mass density=1077.3 kg/m3	105.62 ± 2.1 J/K/mol and 105.16 ± 2.1 J/K/mol
342 K, Mass density=883.2 kg/m3	111.03 ± 2.2 J/K/mol
342 K, Mass density=975.6 kg/m3	107 ± 2.1 J/K/mol
342 K, Mass density=1077.2 kg/m3	104.92 ± 2.1 J/K/mol and 104.79 ± 2.1 J/K/mol
343 K, Mass density=502.9 kg/m3	134.81 ± 2.7 J/K/mol
343 K, Mass density=883.1 kg/m3	110.42 ± 2.2 J/K/mol
343 K, Mass density=975.5 kg/m3	106.86 ± 2.1 J/K/mol
343 K, Mass density=1077.1 kg/m3	104.17 ± 2.1 J/K/mol and 104.84 ± 2.1 J/K/mol
344 K, Mass density=502.9 kg/m3	132.16 ± 2.7 J/K/mol
344 K, Mass density=585.8 kg/m3	125.97 ± 2.5 J/K/mol
344 K, Mass density=883.1 kg/m3	111.3 ± 2.2 J/K/mol
344 K, Mass density=975.4 kg/m3	106.41 ± 2.1 J/K/mol
344 K, Mass density=1077 kg/m3	104.75 ± 2.1 J/K/mol and 104.6 ± 2.1 J/K/mol
345 K, Mass density=502.9 kg/m3	126.98 ± 2.6 J/K/mol
345 K, Mass density=585.7 kg/m3	123.95 ± 2.5 J/K/mol
345 K, Mass density=585.8 kg/m3	131.35 ± 2.6 J/K/mol
345 K, Mass density=688.7 kg/m3	126.83 ± 2.6 J/K/mol
345 K, Mass density=883 kg/m3	111.02 ± 2.2 J/K/mol
345 K, Mass density=975.3 kg/m3	107.26 ± 2.2 J/K/mol
345 K, Mass density=1076.9 kg/m3	105.11 ± 2.1 J/K/mol and 104.72 ± 2.1 J/K/mol
346 K, Mass density=403.2 kg/m3	120.08 ± 2.4 J/K/mol
346 K, Mass density=502.9 kg/m3	120.15 ± 2.4 J/K/mol
346 K, Mass density=585.7 kg/m3	120.32 ± 2.4 J/K/mol
346 K, Mass density=585.8 kg/m3	127.65 ± 2.6 J/K/mol
346 K, Mass density=688.7 kg/m3	123.21 ± 2.5 J/K/mol
346 K, Mass density=774.1 kg/m3	115.2 ± 2.3 J/K/mol
346 K, Mass density=883 kg/m3	110.89 ± 2.2 J/K/mol
346 K, Mass density=975.3 kg/m3	107.47 ± 2.2 J/K/mol and 107.62 ± 2.2 J/K/mol
346 K, Mass density=1076.8 kg/m3	105.53 ± 2.1 J/K/mol and 105.08 ± 2.1 J/K/mol
347 K, Mass density=403.2 kg/m3	117.75 ± 2.4 J/K/mol
347 K, Mass density=503 kg/m3	115.93 ± 2.3 J/K/mol
347 K, Mass density=585.7 kg/m3	117.72 ± 2.4 J/K/mol
347 K, Mass density=585.8 kg/m3	123.89 ± 2.5 J/K/mol
347 K, Mass density=688.7 kg/m3	119.23 ± 2.4 J/K/mol
347 K, Mass density=774.1 kg/m3	114.9 ± 2.3 J/K/mol
347 K, Mass density=882.9 kg/m3	110.19 ± 2.2 J/K/mol
347 K, Mass density=975.2 kg/m3	105.52 ± 2.1 J/K/mol and 107.28 ± 2.2 J/K/mol
347 K, Mass density=1076.7 kg/m3	105.04 ± 2.1 J/K/mol and 104.54 ± 2.1 J/K/mol
348 K, Mass density=403.3 kg/m3	116.59 ± 2.3 J/K/mol
348 K, Mass density=503 kg/m3	118.49 ± 2.4 J/K/mol
348 K, Mass density=585.7 kg/m3	124.85 ± 2.5 J/K/mol and 118.08 ± 2.4 J/K/mol
348 K, Mass density=688.7 kg/m3	117.7 ± 2.4 J/K/mol
348 K, Mass density=774 kg/m3	114.62 ± 2.3 J/K/mol
348 K, Mass density=882.8 kg/m3	109.75 ± 2.2 J/K/mol
348 K, Mass density=975.1 kg/m3	106.21 ± 2.1 J/K/mol and 107.41 ± 2.2 J/K/mol
348 K, Mass density=1076.6 kg/m3	104.59 ± 2.1 J/K/mol and 104.74 ± 2.1 J/K/mol
349 K, Mass density=403.3 kg/m3	115.69 ± 2.3 J/K/mol
349 K, Mass density=503 kg/m3	119.76 ± 2.4 J/K/mol
349 K, Mass density=585.7 kg/m3	123.44 ± 2.5 J/K/mol and 117.14 ± 2.4 J/K/mol
349 K, Mass density=688.6 kg/m3	119.03 ± 2.4 J/K/mol
349 K, Mass density=774 kg/m3	115.4 ± 2.3 J/K/mol
349 K, Mass density=882.8 kg/m3	110.59 ± 2.2 J/K/mol
349 K, Mass density=975 kg/m3	107.41 ± 2.2 J/K/mol and 108.49 ± 2.2 J/K/mol
349 K, Mass density=1076.6 kg/m3	105.38 ± 2.1 J/K/mol and 105.95 ± 2.1 J/K/mol
350 K, Mass density=403.4 kg/m3	113.67 ± 2.3 J/K/mol
350 K, Mass density=503 kg/m3	116.82 ± 2.4 J/K/mol
